Read-outs that look alike come from different tables or passages of the source.
Legend:
[1] = system: SARS-CoV-2; assay: Anti-viral in vitro PRNT assay in Vero E6 cells; format: cell-based; details: Vero E6 cells, 1000 pfu, 3 days, plaque reduction; for EC50: read-out: anti-SARS-CoV2 (PRNT) in Vero E6 EC50
[2] = mouse oral PK, female Balb/c, 40 mg/kg single dose; for AUC0-t / Cmax / Tmax / t1/2: plasma
Method: (§1) Pharmacokinetics of test compounds was evaluated following an oral administration of a single dose (at 40 mg/kg) to female Balb/c mice.
(§2) Procedure: Test compounds were administered to Balb/c mice (n=3 per sex per time point) by a single oral gavage. The target dose level for oral administration was 40 mg/kg. Blood samples were collected at pre-dose, and at 0.083, 0.25, 0.50, 1, 2, 4, 6, 8, and 12 hours post-dose. Concentrations of test compound were determined by an LC-MS/MS. Non-compartmental Pharmacokinetic parameters of test compounds were analyzed using Phoenix WinNonlin 8.3.
(§3) Animal Dosing: All animals were fasted overnight through approximately 4 hours post-dose. Tap water was provided to mice ad Libitum. The mice were dosed orally at 10.0 ml/kg. The formulation volume of the test compound administered to each animal was calculated based on the body weight measured on the day of dosing.
(§4) Sample Collection and Analysis: Approximately 0.20 mL of blood was collected via orbital sinus vein puncture into EDTA-K2 tubes. Plasma samples were harvested by centrifugation and stored at −80° C. until analysis. The analytical method for test compound involved protein precipitation by adding acetonitrile containing 1% FA and internal standard (A-1-a synthesized in house or Tolbutamide purchased from Sigma), and final analysis by LC-MS/MS. A standard curve was prepared using mouse plasma for the test compound. The calibration curve was linear over a concentration range of 1.0 to 1000 ng/mL.
(§5) Pharmacokinetic and Statistic Analysis: The reported plasma concentrations of test compounds were used to determine pharmacokinetic parameters, using a non-compartmental model for data analysis (Phoenix WinNonlin 8.3). The common pharmacokinetic parameters were calculated, whenever possible, from the plasma concentration-versus-time data. Nominal doses and sampling times were used, except where deviations were noted. […] BQL after Tmax would not participate in calculation of PK parameters.

[3] = format: in vitro ADME, Human; details: extraction ratio; for Liver Microsomal Stability (ER) Human: compound at 1 uM, human liver microsomes 0.5 mg/mL
[4] = biological target: SARS-CoV-2 M^pro (3CL protease) (Severe acute respiratory syndrome coronavirus 2 (2019-nCoV) (SARS-CoV-2), UniProt P0DTD1); format: biochemical; details: read-out: SARS-CoV-2M^pro inhibition IC50
[5] = format: in vitro ADME; details: extraction ratio, compound at 1 uM; for Liver Microsomal Stability (ER) SD rat: SD rat liver microsomes 0.5 mg/mL; for Liver Microsomal Stability (ER) Beagle dog: beagle dog liver microsomes 0.5 mg/mL; for Liver Microsomal Stability (ER) Monkey: monkey liver microsomes 0.5 mg/mL; for Liver Microsomal Stability (ER) Mouse: mouse liver microsomes 0.5 mg/mL
[6] = in vivo; details: female, Balb/c, mouse, po, 40 mg/kg
Method: as §1, §2, §3, §4, §5

[7] = wild type Mpro 17 nM, substrate 40 uM
[8] = Severe acute respiratory syndrome coronavirus 2, Vero C1008, 72 h

Structure (SMILES)	EC50 [1] [nM]	F % (bioavailability) [2] [%]	AUC0-t [2] [ng·h/mL]	Cmax [2] [ng/mL]	Tmax [2] [h]	t1/2 [2] [h]	Liver Microsomal Stability (ER) Human [3]	IC50 [4, 7] [nM]	Liver Microsomal Stability (ER) SD rat [5]	Liver Microsomal Stability (ER) Beagle dog [5]	Liver Microsomal Stability (ER) Monkey [5]	Liver Microsomal Stability (ER) Mouse [5]	EC50 [1, 8] [nM]	IC50 [4] [nM]	anti-SARS-CoV2 (PRNT) in Vero E6 EC50 (μM) [1]	AUC0-t [6] [ng·h/mL]	Cmax [6] [ng/mL]	Tmax [6] [h]	half-life [6] [h]	Liver Microsomal Stability (ER) Human, at 0.1 uM ([3]; compound at 0.1 uM, human liver microsomes)
CC(C)C[C@H](CC(=O)[C@@H](NC(=O)OCc1ccccc1)[C@@H](C)OC(C)(C)C)C(=O)N[C@H](C=O)C[C@@H]1CCNC1=O [Compound C-1-b]	1020	2.9	128.4	46.1	2	0.704	0.66	1.3	0.23	0.48	0.51	0.45								
CC(C)C[C@H](NC(=O)c1cc2ccccc2[nH]1)C(=O)N[C@@H](C[C@@H]1CCNC1=O)C(=O)CCl [Compound A-1-g, (2S)—N-[(2S)-4-chloro-3-oxo-1-[(3S)-2-oxopyrrolidin-3-yl]butan-2-yl]-2-[(1H-indol-2-yl)formamido]-4-methylpentanamide]							0.80		0.77	0.71	0.68	0.53	18200	47						
CC(C)C[C@H](NC(=O)C(C)(C)C)C(=O)N1C[C@H]2[C@@H]([C@H]1C(=O)N[C@H](C#N)C[C@@H]1CCNC1=O)C2(C)C [Compound H-1-d]							0.26	39.6	0.09	0.16		0.63			Inactive					
CC(C)(C)[C@H](NC(=O)C(F)(F)F)C(=O)N1C[C@H]2[C@@H]([C@H]1C(=O)N[C@H](C#N)C[C@@H]1CCCNC1=O)C2(C)C [Compound D-3-a]	1270		5590	7070	0.25	0.706	0.38	5.83	0.09	0.16		0.66								
CC(C)C[C@H](NC(=O)c1cc2ccccc2[nH]1)C(=O)N1C[C@H]2[C@@H]([C@H]1C(=O)N[C@H](C=O)C[C@@H]1CCNC1=O)C2(C)C [Compound G-1-a]	25100		36.1	13.3	1	0.92	0.28	9.57	0.16	0.09	0.33	0.00								
CC(C)C[C@H](NC(=O)C1CC1)C(=O)N1C[C@H]2[C@@H]([C@H]1C(=O)N[C@H](C#N)C[C@@H]1CCNC1=O)C2(C)C [Compound H-1-f]			72.0	32.1	1.0	1.43	0.03	28.6	0.04	0.01		0.27			Inactive					
CC(C)C[C@H](NC(=O)c1cc2c(F)cccc2[nH]1)C(=O)N[C@@H](C[C@@H]1CCNC1=O)C(=O)CO [Compound A-3-e, (2S)-2-[(4-fluoro-1H-indol-2-yl)formamido]-N-[(2S)-4-hydroxy-3-oxo-1-[(3S)-2-oxopyrrolidin-3-yl]butan-2-yl]-4-methylpentanamide]							0.11		0.17	0.05		0.23		5.11		261	131	0.25	1.25	
CC(C)C[C@H](NC(=O)[C@@H](NC(=O)C(F)F)[C@@H](C)OC(C)(C)C)C(=O)N[C@H](C#N)C[C@@H]1CCNC1=O [Compound H-3-a]	2190						0.35	8.1	0.21	0.06		0.68								
Cc1cccc2[nH]c(C(=O)N[C@@H](CC(C)C)C(=O)N[C@H](C=O)C[C@@H]3CCNC3=O)cc12 [Compound A-4-a, 4-methyl-N—((S)-4-methyl-1-oxo-1-(((S)-1-oxo-3-((S)-2-oxopyrrolidin-3-yl)propan-2-yl)amino)pentan-2-yl)-1H-indole-2-carboxamide]							0.21		0.06	0.22	0.098	0.13	1130	2.39					1	
CC(C)(C)[C@H](NC(=O)C1CC1)C(=O)N1C[C@H]2[C@@H]([C@H]1C(=O)N[C@H](C#N)C[C@@H]1CCNC1=O)C2(C)C [Compound H-2-c]	3360						0.02	6.1	0.01	0.01		0.32								
Cc1cccc2[nH]c(C(=O)N[C@@H](CC(C)C)C(=O)N[C@@H](C[C@@H]3CCNC3=O)C(=O)CO)cc12 [Compound A-4-d]	2060		120	52	4	2.14	0.18	4.13	0.19	0.08		0.44								
CC(C)(C)C(=O)N[C@H](C(=O)N1C[C@H]2[C@@H]([C@H]1C(=O)N[C@H](C#N)C[C@@H]1CCNC1=O)C2(C)C)C(C)(C)C [Compound H-2-a]							0.53	40.7	0.15	0.52		0.83			Inactive					
CC(C)C[C@H](NC(=O)c1cc2c(F)cccc2[nH]1)C(=O)N[C@H](C#N)C[C@@H]1CCNC1=O [Compound A-3-a, (2S)—N-[(1S)-1-cyano-2-[(3S)-2-oxopyrrolidin-3-yl]ethyl]-2-[(4-fluoro-1H-indol-2-yl)-formamido]-4-methylpentanamide]							0.02		0.21	0.03	0.27	0.07	5180			15500	8050	1	0.976	
CC(C)C[C@H](NC(=O)c1cc2ccccc2[nH]1)C(=O)N1C[C@H]2[C@@H]([C@H]1C(=O)N[C@H](C#N)C(C)(C)C)C2(C)C [Compound G-3-b]			383.7	169	2	0.773	0.28	> 10000	0.20	0.32		0.55								
CC(C)C[C@H](NC(=O)c1cc2ccccc2[nH]1)C(=O)N[C@@H](C[C@@H]1CCNC1=O)C(=O)CO [Compound A-1-h]							0.07	10.2	0.13	0.03		0.23			Inactive					
CC(C)(C)[C@H](NC(=O)C(F)(F)F)C(=O)N1C[C@H]2[C@@H]([C@H]1C(=O)N[C@H](C=O)C[C@@H]1CCNC1=O)C2(C)C [Compound D-1-f]	7590		1402	839	1	1.37	0.093,	1.08	−0.02	0.01	0.13	−0.02								0.22(0.1 uM)*
CC(C)C[C@H](NC(=O)C(F)F)C(=O)N1C[C@H]2[C@@H]([C@H]1C(=O)N[C@H](C=O)C[C@@H]1CCNC1=O)C2(C)C [Compound H-1-a]							0.08	6.35	0.05	0.10		0.24			inactive					
